Assay results from patent US20230203081A1, “LINCOSAMIDE ANTIBIOTICS AND USES THEREOF” (President and Fellows of Harvard College, priority 2020, published 2023).
In brackets after ≈: the same amount, converted by molar mass.

Tests used:
Format in all cases: cell-based
S. aureus ATCC 29213 = experiment: MIC (broth microdilution or agar dilution, CLSI); details: Staphylococcus aureus, ATCC29213, S. aureus HAV#001, ATCC 29213, MP-549; read-out: MIC
Method in brief: (§1)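 Per CLSI, MICs by broth microdilution or agar dilution; strains other than streptococci and anaerobes were sub-cultured overnight at 35° C on blood agar, with a final broth inoculum of 5×10^5 CFU/mL.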

S. pyogenes ATCC 19615 = experiment: MIC (broth microdilution or agar dilution, CLSI); details: Streptococcus pyogenes, ATCC19615, S. pyogenes HAV#004, ATCC 19615; read-out: MIC
Method in brief: as §1

E. faecalis ATCC 29212 = experiment: MIC (broth microdilution or agar dilution, CLSI); details: Enterococcus faecalis, ATCC29212, E. faecalis HAV#005, ATCC 29212; read-out: MIC
Method in brief: as §1

[1] = system: S. pyogenes MMX 946; cErmB; experiment: MIC (broth microdilution or agar dilution, CLSI); details: Streptococcus pyogenes; S. pyogenes HAV#035, MMX 946; cErmB, mac-resistant; read-out: MIC
Method in brief: as §1

S. pneumoniae ATCC 6303 = experiment: MIC (broth microdilution or agar dilution, CLSI); details: Streptococcus pneumoniae, ATCC6303; S. pneumoniae HAV#351, ATCC 6303; read-out: MIC
Method in brief: as §1

[2] = system: S. aureus ATCC BAA-1707 (MRSA); experiment: MIC (broth microdilution or agar dilution, CLSI); details: Staphylococcus aureus; S. aureus HAV#016, ATCC BAA-1707; MRSA; read-out: MIC
Method in brief: as §1

S. aureus MMX 3035 cErmA = experiment: MIC (broth microdilution or agar dilution, CLSI); details: Staphylococcus aureus, MMX3035CERMA; S. aureus HAV#031, MMX 3035; cErmA; read-out: MIC
Method in brief: as §1

[3] = system: E. faecalis MMX 847; cErmB; experiment: MIC (broth microdilution or agar dilution, CLSI); details: Enterococcus faecalis; E. faecalis HAV#036, MMX 847; mac-resistant, cErmB; read-out: MIC
Method in brief: as §1

S. pneumoniae ATCC 49619 = experiment: MIC (broth microdilution or agar dilution, CLSI); details: Streptococcus pneumoniae, ATCC49619, S. pneumoniae HAV#003, ATCC 49619; read-out: MIC
Method in brief: as §1

S. aureus hVISA = experiment: MIC (broth microdilution or agar dilution, CLSI); details: Staphylococcus aureus; S. aureus HAV#204, hVISA; read-out: MIC
Method in brief: as §1

E. coli ATCC 25922 = experiment: MIC (broth microdilution or agar dilution, CLSI); details: Escherichia coli, ATCC25922; E. coli HAV#006, ATCC 25922
Method in brief: as §1

S. aureus ATCC 700699 = experiment: MIC (broth microdilution or agar dilution, CLSI); details: Staphylococcus aureus; S. aureus HAV#202, ATCC 700699 (VISA); read-out: MIC
Method in brief: as §1

[4] = system: S. pneumoniae MMX 3028 cErmB; experiment: MIC (broth microdilution or agar dilution, CLSI); details: Streptococcus pneumoniae, MMX3028CERMB; S. pneumoniae HAV#033; MMX 3028, cErmB; read-out: MIC
Method in brief: as §1

E. coli LptD = experiment: MIC (broth microdilution or agar dilution, CLSI); details: Escherichia coli, E. coli HAV#040; LptD; read-out: MIC
Method in brief: as §1

[5] = system: S. pneumoniae MMX 3031 cMefA; experiment: MIC (broth microdilution or agar dilution, CLSI); details: Streptococcus pneumoniae, MMX3031CMEFA, S. pneumoniae HAV#034; MMX 3031, cMefA; read-out: MIC
Method in brief: as §1

[6] = system: broad panel of different clinical isolates; experiment: microbe, parasite or virus in culture
Method in brief: as §1

## CC(=O)NC[C@H]1CN(c2ccc(N3CCOCC3)c(F)c2)C(=O)O1 [Linezolid]
S. aureus ATCC 29213
  MIC: 2 µg/mL (≈ 5.93 µM)
S. pyogenes ATCC 19615
  MIC: 2 µg/mL (≈ 5.93 µM)
E. faecalis ATCC 29212
  MIC: 2 µg/mL (≈ 5.93 µM)
[1]
  MIC: 1 µg/mL (≈ 2.96 µM)
S. pneumoniae ATCC 6303
  MIC: 1 µg/mL (≈ 2.96 µM)
[2]
  MIC: 2 µg/mL (≈ 5.93 µM)
S. aureus MMX 3035 cErmA
  MIC: 2 µg/mL (≈ 5.93 µM)
[3]
  MIC: 2 µg/mL (≈ 5.93 µM)
S. pneumoniae ATCC 49619
  MIC: 1 µg/mL (≈ 2.96 µM)
S. aureus hVISA
  MIC: 2 µg/mL (≈ 5.93 µM)
E. coli ATCC 25922
  MIC: > 128 µg/mL
S. aureus ATCC 700699
  MIC: 2 µg/mL (≈ 5.93 µM)
[4]
  MIC: 0.5 µg/mL (≈ 1.48 µM)
E. coli LptD
  MIC: 32 µg/mL (≈ 94.9 µM)
[5]
  MIC: 1 µg/mL (≈ 2.96 µM)
[6]; Acinetobacter baumannii, A. baumannii HAV#651, Clinical
  MIC: 16 µg/mL (≈ 47.4 µM)
[6]; Acinetobacter baumannii, A. baumannii HAV#652 Clinical
  MIC: 32 µg/mL (≈ 94.9 µM)
[6]; Acinetobacter baumannii, A. baumannii HAV#653, Clinical
  MIC: 32 µg/mL (≈ 94.9 µM)
[6]; Acinetobacter baumannii, A. baumannii HAV#654, Clinical
  MIC: 32 µg/mL (≈ 94.9 µM)
[6]; Acinetobacter baumannii, A. baumannii HAV#655, Clinical
  MIC: 128 µg/mL (≈ 379 µM)
[6]; Acinetobacter baumannii, A. baumannii HAV#656, Clinical
  MIC: 64 µg/mL (≈ 190 µM)
[6]; Acinetobacter baumannii, A. baumannii HAV#657, Clinical
  MIC: 64 µg/mL (≈ 190 µM)
[6]; Acinetobacter baumannii, A. baumannii HAV#658, Clinical
  MIC: 64 µg/mL (≈ 190 µM)
[6]; Acinetobacter baumannii, A. baumannii HAV#659, Clinical
  MIC: 64 µg/mL (≈ 190 µM)
[6]; Acinetobacter baumannii, A. baumannii HAV#660, Clinical
  MIC: 64 µg/mL (≈ 190 µM)
[6]; Acinetobacter baumannii, A. baumannii HAV#661, Clinical
  MIC: 32 µg/mL (≈ 94.9 µM)
[6]; Acinetobacter baumannii, A. baumannii HAV#662, Clinical
  MIC: 64 µg/mL (≈ 190 µM)
[6]; Acinetobacter baumannii, A. baumannii HAV#663, Clinical
  MIC: 32 µg/mL (≈ 94.9 µM)
[6]; Acinetobacter baumannii, A. baumannii HAV#664, Carbapenem R
  MIC: 64 µg/mL (≈ 190 µM)
[6]; Enterococcus faecalis, E. faecalis HAV#602, Clincal
  MIC: 4 µg/mL (≈ 11.9 µM)
[6]; Enterococcus faecalis, E. faecalis HAV#607, Clinical
  MIC: 16 µg/mL (≈ 47.4 µM)
[6]; Enterococcus faecalis, E. faecalis HAV#609, Clinical
  MIC: 4 µg/mL (≈ 11.9 µM)
[6]; Enterococcus faecalis, S. faecalis 5060, Line R & Vanco R
  MIC: 8 µg/mL (≈ 23.7 µM)
[6]; Enterococcus faecalis, S. faecalis 5074, Line R
  MIC: 8 µg/mL (≈ 23.7 µM)
[6]; Enterococcus faecalis, VRE, E. faecalis HAV#251, Clinical VRE
  MIC: 2 µg/mL (≈ 5.93 µM)
[6]; Enterococcus faecalis, VRE, E. faecalis HAV#606, Clinical
  MIC: 2 µg/mL (≈ 5.93 µM)
[6]; Enterococcus faecium, E. faecium HAV#317, Clinical
  MIC: 2 µg/mL (≈ 5.93 µM)
[6]; Enterococcus faecium, E. faecium HAV#324, Clinical
  MIC: 4 µg/mL (≈ 11.9 µM)
[6]; Enterococcus faecium, E. faecium HAV#327, Clinical
  MIC: 4 µg/mL (≈ 11.9 µM)
[6]; Enterococcus faecium, E. faecium HAV#329, Clinical
  MIC: 4 µg/mL (≈ 11.9 µM)
[6]; Enterococcus faecium, VRE, E. faecium HAV#318, VanA
  MIC: 4 µg/mL (≈ 11.9 µM)
[6]; Enterococcus faecium, VRE, E. faecium HAV#319, Line R & Vanco R
  MIC: 64 µg/mL (≈ 190 µM)
[6]; Enterococcus faecium, VRE, E. faecium HAV#320, Clinical
  MIC: 2 µg/mL (≈ 5.93 µM)
[6]; Escherichia coli, E. coli HAV#503, Clinical
  MIC: 128 µg/mL (≈ 379 µM)
[6]; Escherichia coli, E. coli HAV#511, Clinical
  MIC: 32 µg/mL (≈ 94.9 µM)
[6]; Escherichia coli, E. coli HAV#512, Clinical
  MIC: 32 µg/mL (≈ 94.9 µM)
[6]; Escherichia coli, E. coli HAV#513, Clinical
  MIC: 32 µg/mL (≈ 94.9 µM)
[6]; Escherichia coli, E. coli HAV#514, Clinical
  MIC: 32 µg/mL (≈ 94.9 µM)
[6]; Escherichia coli, E. coli HAV#516, ESBL-producing
  MIC: 64 µg/mL (≈ 190 µM)
[6]; Haemophilus influenzae, ATCC9007, H. influenzae HAV#376, ATCC-9007
  MIC: 4 µg/mL (≈ 11.9 µM)
[6]; Klebsiella pneumoniae, K. pneumoniae HAV#404, Clinical
  MIC: 32 µg/mL (≈ 94.9 µM)
[6]; Klebsiella pneumoniae, K. pneumoniae HAV#405, Clinical
  MIC: 32 µg/mL (≈ 94.9 µM)
[6]; Klebsiella pneumoniae, K. pneumoniae HAV#406, Clinical
  MIC: 32 µg/mL (≈ 94.9 µM)
[6]; Klebsiella pneumoniae, K. pneumoniae HAV#407, Clinical
  MIC: 32 µg/mL (≈ 94.9 µM)
[6]; Klebsiella pneumoniae, K. pneumoniae HAV#408, Clinical
  MIC: 32 µg/mL (≈ 94.9 µM)
[6]; Klebsiella pneumoniae, K. pneumoniae HAV#409, ESBL-producing
  MIC: 64 µg/mL (≈ 190 µM)
[6]; Staphylococcus aureus, MRSA, S. aureus HAV#0107, MRSA Col(Colindale, England)
  MIC: 2 µg/mL (≈ 5.93 µM)
[6]; Staphylococcus aureus, MRSA, S. aureus HAV#218, Line R
  MIC: 8 µg/mL (≈ 23.7 µM)
[6]; Staphylococcus aureus, MRSA, S. aureus HAV#220, Line R
  MIC: 32 µg/mL (≈ 94.9 µM)
[6]; Staphylococcus aureus, MSSA, S. aureus HAV#219, Line R
  MIC: 32 µg/mL (≈ 94.9 µM)
[6]; Staphylococcus aureus, S. aureus HAV#051, mecA, norA, spcl, ermA, aad1, aac6′-aph2″
  MIC: 4 µg/mL (≈ 11.9 µM)
[6]; Staphylococcus aureus, S. aureus HAV#052, mecA, norA, fosB, blaZ
  MIC: 4 µg/mL (≈ 11.9 µM)
[6]; Staphylococcus aureus, S. aureus HAV#053 mecA, norA, fosB
  MIC: 4 µg/mL (≈ 11.9 µM)
[6]; Staphylococcus aureus, S. aureus HAV#054, mecA, norA, spcl, aad1, fosB, ermA, aac6′-aph2″, blaZ
  MIC: 1 µg/mL (≈ 2.96 µM)
[6]; Staphylococcus aureus, S. aureus HAV#211, Clinical
  MIC: 4 µg/mL (≈ 11.9 µM)
[6]; Staphylococcus aureus, S. aureus HAV#212, Clinical
  MIC: 4 µg/mL (≈ 11.9 µM)
[6]; Staphylococcus aureus, S. aureus HAV#214, Clinical
  MIC: 4 µg/mL (≈ 11.9 µM)
[6]; Staphylococcus aureus, S. aureus HAV#216, Clinical, cfr
  MIC: 16 µg/mL (≈ 47.4 µM)
[6]; Staphylococcus aureus, S. aureus HAV#217, cfr
  MIC: 64 µg/mL (≈ 190 µM)
[6]; Staphylococcus aureus, VISA, S. aureus HAV#203, Clinical (VISA)
  MIC: 2 µg/mL (≈ 5.93 µM)
[6]; Staphylococcus epidermidis, S. epidermidis HAV# 275 Clinical, cfr
  MIC: > 64 µg/mL
[6]; Staphylococcus epidermidis, S. epidermidis HAV# 276, cfr
  MIC: > 64 µg/mL
[6]; Staphylococcus epidermidis, S. epidermidis HAV#277, Line R
  MIC: > 128 µg/mL
[6]; Staphylococcus epidermidis, S. epidermidis HAV#278 Line R
  MIC: 64 µg/mL (≈ 190 µM)
[6]; Staphylococcus epidermidis, S. epidermidis HAV#279, Line R
  MIC: 4 µg/mL (≈ 11.9 µM)
[6]; Staphylococcus haemolyticus, S. haemolyticus 5052, Line R & Methicillin R
  MIC: 64 µg/mL (≈ 190 µM)
[6]; Streptococcus pneumoniae, ATCC700673, S. pneumoniae HAV#352, ATCC 700673, MDR
  MIC: 4 µg/mL (≈ 11.9 µM)
[6]; Streptococcus pneumoniae, ATCCBAA255, S. pneumoniae HAV#354, ATCC-BAA-255
  MIC: 4 µg/mL (≈ 11.9 µM)
[6]; Streptococcus pneumoniae, ATCCBAA334, S. pneumoniae HAV#353, ATCC-BAA-334
  MIC: 4 µg/mL (≈ 11.9 µM)
[6]; Streptococcus pneumoniae, S. pneumoniae HAV#356, Clinical
  MIC: 4 µg/mL (≈ 11.9 µM)
[6]; Streptococcus pneumoniae, S. pneumoniae HAV#358, Clinical
  MIC: 4 µg/mL (≈ 11.9 µM)
